Columns and labels:
H3R-453 [1] = biological target: T1, H3R-453 (Homo sapiens, UniProt Q9Y5N1); settings: […] Tris-HCl pH […] °C, […] h; labelled compound
H3R-373 [2] = biological target: T2, H3R-373 (Homo sapiens, UniProt Q9Y5N1, INS445KMKKKTCL); settings: […] Tris-HCl pH […] °C, […] h; labelled compound
H3R-365 [3] = biological target: T3, H3R-365 (Homo sapiens, UniProt Q9Y5N1); assay: biochemical
H3R-445 [4] = biological target: T4, H3R-445 (Homo sapiens, UniProt Q9Y5N1); assay: biochemical
H3R-415 [5] = biological target: T5, H3R-415 (Homo sapiens, UniProt Q9Y5N1); assay: biochemical
H3R-413 [6] = biological target: T6, H3R-413 (Homo sapiens, UniProt Q9Y5N1, DEL274-305); assay: biochemical
H3R-373 [7] = biological target: T2, H3R-373
H3R-453 [8] = biological target: T1, H3R-453
H3R-413 [9] = biological target: T6, H3R-413; assay: biochemical; remark: listed apart in the source
H3R-365 [10] = biological target: T3, H3R-365; assay: biochemical; remark: listed apart in the source
H3R-445 [11] = biological target: T4, H3R-445; assay: biochemical; remark: listed apart in the source
H3R-415 [12] = biological target: T5, H3R-415; assay: biochemical; remark: listed apart in the source
H3R-453 [13] = biological target: T1, H3R-453; assay: cell-based; parameters: species or system HEK293-EPAC stably expressing H3R isoform; settings: HEK293-EPAC stably expressing H3R isoform, read-out: H3R-453 α
H3R-445 [14] = biological target: T4, H3R-445; assay: cell-based; parameters: species or system HEK293-EPAC stably expressing H3R isoform; settings: HEK293-EPAC stably expressing H3R isoform, read-out: H3R-445 α
H3R-415 [15] = biological target: T5, H3R-415; assay: cell-based; parameters: species or system HEK293-EPAC stably expressing H3R isoform; settings: HEK293-EPAC stably expressing H3R isoform, read-out: H3R-415 α
H3R-413 [16] = biological target: T6, H3R-413; assay: cell-based; parameters: species or system HEK293-EPAC stably expressing H3R isoform
H3R-413 [17] = biological target: T6, H3R-413; assay: cell-based; parameters: species or system HEK293-EPAC stably expressing H3R isoform; settings: HEK293-EPAC stably expressing H3R isoform, read-out: H3R-413 α
H3R-373 [18] = biological target: T2, H3R-373; assay: cell-based; parameters: species or system HEK293-EPAC stably expressing H3R isoform; settings: HEK293-EPAC stably expressing H3R isoform, read-out: H3R-373 α
H3R-365 [19] = biological target: T3, H3R-365; assay: cell-based; parameters: species or system HEK293-EPAC stably expressing H3R isoform; settings: HEK293-EPAC stably expressing H3R isoform, read-out: H3R-365 α

| Ki (H3R-373 [7]) [nM] | Ki (H3R-453 [8]) [nM] | Ki (H3R-413 [9]) [nM] | Ki (H3R-365 [10]) [nM] | Ki (H3R-445 [11]) [nM] | Ki (H3R-415 [12]) [nM] | Emax (H3R-453 [13]) [%] | Emax (H3R-445 [14]) [%] | Emax (H3R-415 [15]) [%] | EC50 (H3R-413 [16]) [nM] | Emax (H3R-413 [17]) [%] | Emax (H3R-373 [18]) [%] | Emax (H3R-365 [19]) [%] | SMILES | pKD (H3R-453 [1]) | pKD (H3R-373 [2]) | Kd (H3R-365 [3]) [nM] | Kd (H3R-445 [4]) [nM] | Kd (H3R-415 [5]) [nM] | Kd (H3R-413 [6]) [nM] |
| --- | --- | --- | --- | --- | --- | --- | --- | --- | --- | --- | --- | --- | --- | --- | --- | --- | --- | --- | --- |
|  |  |  |  |  |  |  |  |  |  |  |  |  | CNCCc1c[nH]cn1 [[3H]NAMH] | 9.0 ± 0.1 | 9.6 ± 0.1 | 0.501 | 1.26 | 1.26 | 1.26 |
| 1.58 | 3.16 | 3.98 | 2 | 2.51 | 3.98 | 50 ± 10 | 60 ± 20 | 50 ± 10 | 6.31 | 50 ± 10 | 70 ± 10 | 100 ± 30 | NCCCCCc1c[nH]cn1 [impentamine, 5-(3H-imidazol-4-yl)pentan-1-amine] |  |  |  |  |  |  |

— paper doi:10.1101/2023.12.06.570349v1 (biorxiv, 2023)
